According to ChEMBL document CHEMBL1667847, “Quinazolines with intra-molecular hydrogen bonding scaffold (iMHBS) as PI3K/mTOR dual inhibitors” (Bioorg Med Chem Lett, 2011):

Legend:
[1] = target: T1, Phosphatidylinositol 4,5-bisphosphate 3-kinase catalytic subunit alpha isoform (Homo sapiens, UniProt P42336); test: Inhibition of PI3Kalpha by fluorescene polarization assay
[2] = target: T2, Serine/threonine-protein kinase mTOR (Homo sapiens, UniProt P42345); test: Inhibition of mTOR
[3] = target: T1, Phosphatidylinositol 4,5-bisphosphate 3-kinase catalytic subunit alpha isoform; test: Inhibition of PI3Kalpha-phosphorylation at S473 residue in human BT20 cells; assay type: cell-based, BT-20
[4] = target: T2, Serine/threonine-protein kinase mTOR; test: Inhibition of mTOR at 1 uM

T1 sequence (P42336 whole entry, canonical isoform): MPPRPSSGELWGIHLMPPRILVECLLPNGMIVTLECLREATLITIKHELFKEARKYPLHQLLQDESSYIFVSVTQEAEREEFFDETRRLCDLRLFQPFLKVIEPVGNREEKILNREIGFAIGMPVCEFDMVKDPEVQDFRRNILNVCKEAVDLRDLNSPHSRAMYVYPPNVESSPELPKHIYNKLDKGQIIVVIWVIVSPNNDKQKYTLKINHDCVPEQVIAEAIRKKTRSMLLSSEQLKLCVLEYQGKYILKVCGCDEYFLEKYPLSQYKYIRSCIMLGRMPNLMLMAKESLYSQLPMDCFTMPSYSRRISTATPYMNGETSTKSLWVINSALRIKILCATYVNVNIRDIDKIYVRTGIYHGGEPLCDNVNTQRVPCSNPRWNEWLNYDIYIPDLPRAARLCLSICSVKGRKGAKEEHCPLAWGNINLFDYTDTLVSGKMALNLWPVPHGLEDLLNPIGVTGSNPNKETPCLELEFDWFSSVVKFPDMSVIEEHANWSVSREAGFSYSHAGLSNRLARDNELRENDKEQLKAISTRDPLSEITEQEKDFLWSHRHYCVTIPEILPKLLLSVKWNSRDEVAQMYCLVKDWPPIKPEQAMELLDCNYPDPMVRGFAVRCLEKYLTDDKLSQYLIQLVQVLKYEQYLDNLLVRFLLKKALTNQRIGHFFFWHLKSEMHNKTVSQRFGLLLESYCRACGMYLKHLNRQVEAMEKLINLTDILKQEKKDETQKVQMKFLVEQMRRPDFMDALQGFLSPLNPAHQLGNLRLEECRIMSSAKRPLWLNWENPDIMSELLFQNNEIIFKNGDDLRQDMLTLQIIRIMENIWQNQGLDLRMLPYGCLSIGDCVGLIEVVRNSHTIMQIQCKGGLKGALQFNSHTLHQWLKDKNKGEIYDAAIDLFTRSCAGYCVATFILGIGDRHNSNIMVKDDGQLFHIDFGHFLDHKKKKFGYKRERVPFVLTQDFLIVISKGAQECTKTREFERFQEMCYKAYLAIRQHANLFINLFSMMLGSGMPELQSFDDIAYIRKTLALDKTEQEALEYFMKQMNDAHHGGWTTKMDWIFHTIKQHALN

SMILES | Ki [1] | Ki [2] | IC50 [3] | inhibition [4]
Cc1ccc(NC(=O)c2cccc3c(N)nc(C)nc23)cn1 | 0.5 nM | 31 nM | 112 nM | 
Cc1nc(N)c2ccc(C)c(C(=O)Nc3cnc4[nH]ccc4c3)c2n1 | 631 nM | 216 nM |  | 
Cc1nc(N)c2cc(CN(C)C)cc(C(=O)Nc3ccn[nH]3)c2n1 | 188 nM | 1330 nM |  | 
Cc1ccc(NC(=O)c2c(C)ccc3c(N)nc(C)nc23)cn1 | 4550 nM | 3250 nM |  | 
Cc1cc(C(=O)Nc2ccc(C)nc2)c2nc(C)nc(N)c2c1 | 0.5 nM | 66 nM | 88 nM | 
Cc1cc(C(=O)Nc2ccc(N(C)C)nc2)c2nc(C)nc(N)c2c1 | 12 nM | 162 nM |  | 
Cc1nc(N)c2cccc(C(=O)Nc3cnc4[nH]ccc4c3)c2n1 | 1 nM | 5 nM |  | 
Cc1nc(N)c2ccc(C)c(C(=O)Nc3ccc(N(C)C)nc3)c2n1 | > 100 nM |  |  | 
Cc1nc(N)c2cccc(C(=O)Nc3cn[nH]c3)c2n1 | 6 nM | 21 nM |  | 
Cc1cc(C(=O)Nc2cn[nH]c2)c2nc(C)nc(N)c2c1 | 5 nM | 84 nM | 24 nM | 
Cc1cc(C(=O)Nc2ccn[nH]2)c2nc(C)nc(N)c2c1 | 7 nM | 3 nM | 35 nM | 
Cc1nc(N)c2ccc(C)c(C(=O)Nc3ccn[nH]3)c2n1 | 4550 nM | 984 nM |  | 
COc1ccc(NC(=O)c2cc(C)cc3c(N)nc(C)nc23)cn1 | 0.5 nM | 265 nM |  | 
Cc1nc(N)c2ccc(C)c(C(=O)Nc3cn[nH]c3)c2n1 | > 100 nM |  |  | 
COc1ccc(NC(=O)c2c(C)ccc3c(N)nc(C)nc23)cn1 | > 100 nM | 1000 nM |  | 15%
Cc1nc(N)c2cc(CN3CCOCC3)cc(C(=O)Nc3ccn[nH]3)c2n1 | 15 nM | 13 nM |  | 
Cc1cc(C(=O)Nc2cnc3[nH]ccc3c2)c2nc(C)nc(N)c2c1 | 0.3 nM | 17 nM | 43 nM | 
Cc1nc(N)c2cccc(C(=O)Nc3ccc(N(C)C)nc3)c2n1 | 54 nM | 1000 nM |  | 57%
